Experimental findings from patent US20250011368A1, “DLL3 TARGETING PEPTIDES AND CONSTRUCTS THEREOF” (MARIANA ONCOLOGY INC., priority 2023, published 2025) are described below.

SMILES strings stand for the structures. Numbered stars: 1 amine (or outer) side, 2 acyl side, 3 side chain; on linkers, the order of the positions; unused ones are H or OH. Bridge positions count the residues as written; N and C are the ends. Square brackets hold non-standard residues; d marks the D form. Side chains are listed from the residue outwards. Peptide text beside a SMILES is read from it. * marks the point of attachment. ξ: configuration not given here. DOTA = O=C(O)CN1CCN(CC(=O)O)CCN(CC(=O)*)CCN(CC(=O)O)CC1; Trp(5-F) = N[C@@H](Cc1c[nH]c2ccc(F)cc12)C(=O)O; Phe(2-CF3) = N[C@@H](Cc1ccccc1C(F)(F)F)C(=O)O; Trp(7-aza) = N[C@@H](Cc1c[nH]c2ncccc12)C(=O)O; Pro(trans-4-F) = O=C(O)[C@@H]1C[C@@H](F)CN1; Lys(Me3) = C[N+](C)(C)CCCC[C@H](N)C(=O)O; Phe(4-F) = N[C@@H](Cc1ccc(F)cc1)C(=O)O; γGlu = O=C(O)[C@H](CCC(=O)[*:2])N[*:1]; 2Nal = N[C@@H](Cc1ccc2ccccc2c1)C(=O)O; αMeI = CC[C@H](C)[C@](C)(N)C(=O)O; 3Pal = N[C@@H](Cc1cccnc1)C(=O)O; Cba = N[C@@H](CC1CCC1)C(=O)O; Chg = N[C@H](C(=O)O)C1CCCCC1; ξαMeD = CC(N)(CC(=O)O)C(=O)O; Lauroyl = CCCCCCCCCCCC(=O)*; Aze = O=C(O)[C@@H]1CCN1; Sar = CNCC(=O)O

The target of this experiment is T1, human DLL3 (Homo sapiens, UniProt Q9NYJ7).
T1 sequence (Q9NYJ7 27-618): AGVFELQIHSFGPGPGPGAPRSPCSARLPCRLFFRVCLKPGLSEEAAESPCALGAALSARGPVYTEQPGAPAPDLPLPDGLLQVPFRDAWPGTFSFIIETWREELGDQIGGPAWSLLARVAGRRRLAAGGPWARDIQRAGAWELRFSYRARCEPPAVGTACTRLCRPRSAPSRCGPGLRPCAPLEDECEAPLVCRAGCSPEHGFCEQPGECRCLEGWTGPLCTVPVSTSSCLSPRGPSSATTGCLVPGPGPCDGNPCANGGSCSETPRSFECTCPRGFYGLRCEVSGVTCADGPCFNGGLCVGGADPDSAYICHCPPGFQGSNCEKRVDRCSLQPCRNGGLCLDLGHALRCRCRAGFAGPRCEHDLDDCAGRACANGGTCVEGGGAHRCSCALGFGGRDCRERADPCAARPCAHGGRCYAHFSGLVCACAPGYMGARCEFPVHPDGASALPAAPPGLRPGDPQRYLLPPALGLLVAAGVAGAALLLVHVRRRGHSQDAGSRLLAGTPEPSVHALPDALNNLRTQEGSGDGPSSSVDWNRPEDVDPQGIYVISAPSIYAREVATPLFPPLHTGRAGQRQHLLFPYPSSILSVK
Description: Affinity determination by Surface Plasmon Resonance (SPR). The format is binding. As to conditions: 25° C., biotinylated human DLL3 immobilized on streptavidin sensor chip, 1:1 binding model; read-out: SPR KD. In short, it runs like this: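 Biotinylated human DLL3 was captured on a streptavidin chip with a reference surface. Compounds at several concentrations were injected at 100 μL/minute in phosphate buffer (137 mM NaCl, 2.7 mM KCl, 0.05% P20, 2% DMSO). Affinity and kinetics came from 1:1 model fits of the sensorgrams.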
For the molecule `CC[C@H](C)[C@](C)(NC(=O)[C@@H](NC(=O)[C@H](Cc1c[nH]c2ccccc12)NC(C)=O)[C@@H](C)O)C(=O)N[C@H]1CSSC[C@@H](C(=O)N[C@@H](Cc2c[nH]c3ccccc23)C(=O)N2CCC[C@H]2C(=O)N[C@H](CCCCNC(=O)CN2CCN(CC(=O)O)CCN(CC(=O)O)CCN(CC(=O)O)CC2)C(N)=O)NC(=O)[C@H](CC(=O)O)NC(=O)[C@H](Cc2cnc[nH]2)NC(=O)[C@H](Cc2c[nH]c3ccccc23)NC(=O)[C@H](CC(N)=O)NC(=O)[C@H](CC(N)=O)NC1=O` [compound 409, Ac-W-T-(aMe-I)-C(3)-N-N-W-H-D-C(3)-W-P-[D-Lys(DOTA)]-NH2] (Ac-WT[αMeI]CNNWHDCWP[dK](DOTA)-NH2; disulfide 4-10), the Kd fell in the range of 10 to 100 nM.

As to `CC(=O)N[C@@H](Cc1c[nH]c2ccc(F)cc12)C(=O)N[C@H](C(=O)N[C@@H](Cc1ccccc1C(F)(F)F)C(=O)N[C@H]1CSSC[C@@H](C(=O)N[C@@H](Cc2c[nH]c3ncccc23)C(=O)N2CC[C@H]2C(=O)N[C@H](CCCCNC(=O)CN2CCN(CC(=O)O)CCN(CC(=O)O)CCN(CC(=O)O)CC2)C(N)=O)NC(=O)[C@H](CC(=O)O)NC(=O)[C@H](Cc2cnc[nH]2)NC(=O)[C@H](Cc2ccc(F)cc2)NC(=O)[C@H](CC(N)=O)NC(=O)[C@H](CC(N)=O)NC1=O)[C@@H](C)O` [compound 128, Ac-(5Fluoro-W)-T-(2CF3-F)-C(3)-N-N-(4Fluoro-F)-H-D-C(3)-(7Aza-W)-(Aze)-[D-Lys(DOTA)]-NH2] (Ac-[Trp(5-F)]T[Phe(2-CF3)]CNN[Phe(4-F)]HDC[Trp(7-aza)][Aze][dK](DOTA)-NH2; disulfide 4-10), the Kd was 1 to 10 nM.

On to `CC[C@H](C)[C@H](NC(=O)[C@@H](NC(=O)[C@H](Cc1c[nH]c2ccccc12)NC(C)=O)[C@@H](C)O)C(=O)N[C@H]1CSSC[C@@H](C(=O)N[C@@H](Cc2c[nH]c3ccccc23)C(=O)N2CCC[C@H]2C(=O)N[C@H](CCCCNC(=O)CN2CCN(CC(=O)O)CCN(CC(=O)O)CCN(CC(=O)O)CC2)C(N)=O)NC(=O)[C@H](CC(=O)O)NC(=O)[C@H](CCCC[N+](C)(C)C)NC(=O)[C@H](Cc2ccc3ccccc3c2)NC(=O)[C@H](CC(N)=O)NC(=O)[C@H](CC(N)=O)NC1=O` [compound 238, Ac-W-T-I-C(3)-N-N-(2Nal)-(K(Me)3)-D-C(3)-W-P-[D-Lys(DOTA)]-NH2] (Ac-WTICNN[2Nal][Lys(Me3)]DCWP[dK](DOTA)-NH2; disulfide 4-10), for which the equilibrium dissociation constant (Kd) is 1 to 10 nM.

Turning to `CCCCCCCCCCCC(=O)NCCCC[C@@H]1NC(=O)[C@H](Cc2ccc3ccccc3c2)NC(=O)[C@H](CC(N)=O)NC(=O)[C@H](CC(N)=O)NC(=O)[C@@H](NC(=O)[C@@H](NC(=O)[C@@H](NC(=O)[C@H](Cc2c[nH]c3ccccc23)NC(C)=O)[C@@H](C)O)[C@@H](C)CC)CSSC[C@@H](C(=O)N[C@@H](Cc2c[nH]c3ccccc23)C(=O)N2CCC[C@H]2C(=O)N[C@H](CCCCNC(=O)CC[C@H](NC(=O)CC[C@H](NC(=O)CC[C@H](NC(=O)CN2CCN(CC(=O)O)CCN(CC(=O)O)CCN(CC(=O)O)CC2)C(=O)O)C(=O)O)C(=O)O)C(N)=O)NC(=O)[C@H](CC(=O)O)NC1=O` [compound 368, Ac-W-T-I-C(3)-N-N-(2Nal)-K(C12)-D-C(3)-W-P-[D-Lys(gE-gE-gE-DOTA)]-NH2] (Ac-WTICNN[2Nal]K(Lauroyl)DCWP[dK]([γGlu-γGlu-γGlu-DOTA])-NH2; disulfide 4-10), the dissociation constant Kd lay within 1 to 10 nM.

As for `CC[C@H](C)[C@H](NC(=O)[C@@H](NC(=O)[C@H](Cc1c[nH]c2ccccc12)NC(C)=O)[C@@H](C)O)C(=O)N[C@H]1CSSC[C@@H](C(=O)N[C@@H](Cc2c[nH]c3ccccc23)C(=O)N2CCC[C@H]2C(=O)N(C)CC(=O)N(C)CC(=O)N(C)CC(=O)N(C)CC(=O)N(C)CC(=O)N[C@H](CCCCNC(=O)CN2CCN(CC(=O)O)CCN(CC(=O)O)CCN(CC(=O)O)CC2)C(N)=O)NC(=O)[C@H](CC(=O)O)NC(=O)[C@H](Cc2cnc[nH]2)NC(=O)[C@H](Cc2ccc3ccccc3c2)NC(=O)[C@H](CC(N)=O)NC(=O)[C@H](CC(N)=O)NC1=O` [compound 371, Ac-W-T-I-C(3)-N-N-(2Nal)-H-D-C(3)-W-P-(Sar)5-[D-Lys(DOTA)]-NH2] (Ac-WTICNN[2Nal]HDCWP[Sar][Sar][Sar][Sar][Sar][dK](DOTA)-NH2; disulfide 4-10), the Kd is below 1 nM.

Consider `CCCCCCCCCCCC(=O)NCCCC[C@H](NC(=O)[C@@H](NC(=O)[C@H](Cc1c[nH]c2ccccc12)NC(C)=O)[C@@H](C)O)C(=O)N[C@H]1CSSC[C@@H](C(=O)N[C@@H](Cc2c[nH]c3ccccc23)C(=O)N2CCC[C@H]2C(=O)N[C@H](CCCCNC(=O)CN2CCN(CC(=O)O)CCN(CC(=O)O)CCN(CC(=O)O)CC2)C(N)=O)NC(=O)[C@H](CC(=O)O)NC(=O)[C@H](Cc2cnc[nH]2)NC(=O)[C@H](Cc2c[nH]c3ccccc23)NC(=O)[C@H](CC(N)=O)NC(=O)[C@H](CC(N)=O)NC1=O` [compound 346, Ac-W-T-K(C12)-C(3)-N-N-W-H-D-C(3)-W-P-[D-Lys(DOTA)]-NH2] (Ac-WTK(Lauroyl)CNNWHDCWP[dK](DOTA)-NH2; disulfide 4-10), for which the equilibrium dissociation constant (Kd) is 10 to 100 nM.

On to `CC[C@H](C)[C@H](NC(=O)[C@@H](NC(=O)[C@H](Cc1c[nH]c2ccccc12)NC(C)=O)[C@@H](C)O)C(=O)N[C@H]1CSSC[C@@H](C(=O)N[C@@H](Cc2c[nH]c3ccccc23)C(=O)N2CCC[C@H]2C(=O)N[C@H](CCCCNC(=O)CN2CCN(CC(=O)O)CCN(CC(=O)O)CCN(CC(=O)O)CC2)C(N)=O)NC(=O)C(C)(CC(=O)O)NC(=O)[C@H](Cc2cnc[nH]2)NC(=O)[C@H](Cc2c[nH]c3ccccc23)NC(=O)[C@H](CC(N)=O)NC(=O)[C@H](CC(N)=O)NC1=O` (stereo partly drawn) [compound 410, Ac-W-T-I-C(3)-N-N-W-H-(aMe-D)-C(3)-W-P-[D-Lys(DOTA)]-NH2] (Ac-WTICNNWH[ξαMeD]CWP[dK](DOTA)-NH2; disulfide 4-10), for which the equilibrium dissociation constant (Kd) lay in the range of 1 to 10 nM.

For `CC(=O)N[C@@H](Cc1c[nH]c2ccccc12)C(=O)N[C@H](C(=O)N[C@H](C(=O)N[C@H]1CSSC[C@@H](C(=O)N[C@@H](Cc2c[nH]c3ccccc23)C(=O)N2CCC[C@H]2C(=O)N[C@H](CCCCNC(=O)CN2CCN(CC(=O)O)CCN(CC(=O)O)CCN(CC(=O)O)CC2)C(N)=O)NC(=O)[C@H](CC(=O)O)NC(=O)[C@H](Cc2cnc[nH]2)NC(=O)[C@H](Cc2ccc3ccccc3c2)NC(=O)[C@H](CC(N)=O)NC(=O)[C@H](Cc2cccnc2)NC1=O)C1CCCCC1)[C@@H](C)O` [compound 287, Ac-W-T-(Chg)-C(3)-(3Pya)-N-(2Nal)-H-D-C(3)-W-P-[D-Lys(DOTA)]-NH2] (Ac-WT[Chg]C[3Pal]N[2Nal]HDCWP[dK](DOTA)-NH2; disulfide 4-10), the dissociation constant (Kd) is below 1 nM.

With `CC(=O)N[C@@H](Cc1c[nH]c2ccccc12)C(=O)N[C@H](C(=O)N[C@H](C(=O)N[C@H]1CSSC[C@@H](C(=O)N[C@@H](Cc2c[nH]c3ccccc23)C(=O)N2CCC[C@H]2C(=O)N[C@H](CCCCNC(=O)CN2CCN(CC(=O)O)CCN(CC(=O)O)CCN(CC(=O)O)CC2)C(N)=O)NC(=O)[C@H](CC(=O)O)NC(=O)[C@H](Cc2c[nH]cn2)NC(=O)[C@H](Cc2c[nH]c3ccccc23)NC(=O)[C@H](CC(N)=O)NC(=O)[C@H](CC(N)=O)NC1=O)C1CCCCC1)[C@@H](C)O` [compound 106, Ac-W-T-(Chg)-C(3)-N-N-W-H-D-C(3)-W-P-[D-Lys(DOTA)]-NH2] (Ac-WT[Chg]CNNWHDCWP[dK](DOTA)-NH2; disulfide 4-10), the dissociation constant (Kd) is below 1 nM.

Turning to `CC(=O)N[C@@H](Cc1c[nH]c2ccc(F)cc12)C(=O)N[C@H](C(=O)N[C@@H](CC1CCC1)C(=O)N[C@H]1CSSC[C@@H](C(=O)N[C@@H](Cc2c[nH]c3ncccc23)C(=O)N2C[C@H](F)C[C@H]2C(=O)N[C@H](CCCCNC(=O)CN2CCN(CC(=O)O)CCN(CC(=O)O)CCN(CC(=O)O)CC2)C(N)=O)NC(=O)[C@H](CC(=O)O)NC(=O)[C@H](Cc2cnc[nH]2)NC(=O)[C@H](Cc2ccc(F)cc2)NC(=O)[C@H](CC(N)=O)NC(=O)[C@H](CC(N)=O)NC1=O)[C@@H](C)O` [compound 134, Ac-(5Fluoro-W)-T-(CBA)-C(3)-N-N-(4Fluoro-F)-H-D-C(3)-(7Aza-W)-(trans4Fluoro-P)-[D-Lys(DOTA)]-NH2] (Ac-[Trp(5-F)]T[Cba]CNN[Phe(4-F)]HDC[Trp(7-aza)][Pro(trans-4-F)][dK](DOTA)-NH2; disulfide 4-10), the equilibrium dissociation constant (Kd) was in the range of 1 to 10 nM.

In the case of `CC(=O)N[C@@H](Cc1c[nH]c2ccc(F)cc12)C(=O)N[C@H](C(=O)N[C@@H](CC1CCC1)C(=O)N[C@H]1CSSC[C@@H](C(=O)N[C@@H](Cc2c[nH]c3ncccc23)C(=O)N2C[C@H](F)C[C@H]2C(=O)N[C@@H](CCCCNC(=O)CN2CCN(CC(=O)O)CCN(CC(=O)O)CCN(CC(=O)O)CC2)C(N)=O)NC(=O)[C@H](CC(=O)O)NC(=O)[C@H](Cc2cnc[nH]2)NC(=O)[C@H](Cc2ccc3ccccc3c2)NC(=O)[C@H](CC(N)=O)NC(=O)[C@H](CC(N)=O)NC1=O)[C@@H](C)O` [compound 269, Ac-(5Fluoro-W)-T-(CBA)-C(3)-N-N-(2Nal)-H-D-C(3)-(7Aza-W)-(trans4Fluoro-P)-[D-Lys(DOTA)]-NH2] (Ac-[Trp(5-F)]T[Cba]CNN[2Nal]HDC[Trp(7-aza)][Pro(trans-4-F)]K(DOTA)-NH2; disulfide 4-10), the equilibrium dissociation constant (Kd) was below 1 nM.
